Measured values from article PMC11649115, “In vitro safety evaluation of dopamine D3R antagonist, R-VK4-116, as a potential medication for the treatment of opioid use disorder” (PLOS ONE, 2024).
Like-named read-outs stand apart in the source and are kept apart here.

Key:
Kir2.1 = target: T1, Kir2.1 (Homo sapiens, UniProt P63252); assay: CiPA IonChannelProfiler Cardiac Panel, QPatch; format: cell-based; details: Kir2.1, 100 μM
T1 sequence (P63252 1-427): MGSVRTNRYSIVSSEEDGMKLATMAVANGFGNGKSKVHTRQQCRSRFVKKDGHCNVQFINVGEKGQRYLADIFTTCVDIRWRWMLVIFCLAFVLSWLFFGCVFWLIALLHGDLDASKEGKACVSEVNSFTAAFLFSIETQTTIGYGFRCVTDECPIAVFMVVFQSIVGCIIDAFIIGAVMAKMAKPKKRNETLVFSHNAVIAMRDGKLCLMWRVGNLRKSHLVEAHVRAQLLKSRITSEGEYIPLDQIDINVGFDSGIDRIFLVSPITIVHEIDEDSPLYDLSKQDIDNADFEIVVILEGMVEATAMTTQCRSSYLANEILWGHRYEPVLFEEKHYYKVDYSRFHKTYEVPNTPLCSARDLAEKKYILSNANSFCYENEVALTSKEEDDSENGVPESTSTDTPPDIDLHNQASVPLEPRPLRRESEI

CYP2D6 = CYP2D6 (Homo sapiens, UniProt P10635); assay: CYP inhibition in human liver microsomes; details: human liver microsomes
[1] = Metabolic stability in hepatocyte; details: Beagle, dog, hepatocytes in suspension
Description: (§2) CYP3A4 substrate Midazolam (10 μM) was prepared and incubated in the same manner. […] In addition, in vitro half-life (t1/2, min) and intrinsic clearance (CLint, μl/min/10^6 cells) were calculated [10, 11].

dog hepatocytes = assay: Metabolic stability in hepatocyte; details: dog hepatocytes
Description: as §2

CHEK2 = target: T2, CHEK2 (Homo sapiens, UniProt O96017); assay: KINOMEscan binding (% Ctrl, Kd)
T2 construct: made in house; host or cells: E. coli BL21-derived host (T7 phage) or HEK-293
Description: Briefly, E. coli host derived from the BL21 strain were grown to log-phase and infected with kinase-tagged T7 phage and incubated with shaking at 32°C until lysis. The lysates were centrifuged and filtered to remove cell debris. The remaining kinases were produced in HEK-293 cells and subsequently tagged with DNA for qPCR detection. Streptavidin-coated magnetic beads were treated with biotinylated small molecule ligands to generate affinity resins for kinase assays. The liganded beads were blocked with excess biotin and washed to remove unbound ligand and to reduce non-specific phage binding. […] Selectivity Score (S-score) was a quantitative measure of compound selectivity. […] The binding constants (Kds) were also determined with a standard dose-response curve using the Hill equation and Levenberg-Marquardt algorithm [24, 25].

V1a(h) = target: T3, V1a(h) (Homo sapiens, UniProt P37288); assay: Cellular and nuclear receptor functional assay, antagonist effect; format: cell-based; details: 10 μM
T3 construct: Eurofins Cerep (France) and Eurofins Discovery (St. Charles, MO)
Description: (§1) The purpose of this study was to provide a first step in preliminary safety assessments by providing early identification of potential off-target interactions for the optimization of safety margins. This study was conducted by Eurofins Cerep (France) and Eurofins Discovery (St. Charles, MO). R-VK4-116 was tested in enzyme and uptake assay with 10 enzyme targets (Figs 4 and 5 in S1 File), and cellular and nuclear receptor functional assays with 24 receptor targets (Figs 5 and 6 in S1 File). Compound enzyme inhibition effect was calculated as a % inhibition of control enzyme activity. The cellular agonist effect was calculated as a % of the control response to a known reference agonist for each target, and the cellular antagonist effect was calculated as a % inhibition of the control reference agonist response for each target.

5-HT2B(h) = target: T4, 5-HT2B(h) (Homo sapiens, UniProt P41595); assay: as above; format: cell-based; details: 10 μM
T4 construct: Eurofins Cerep (France) and Eurofins Discovery (St. Charles, MO)
Description: as §1

α1A(h) = target: T5, α1A(h) (Homo sapiens, UniProt P35348); assay: as above; format: cell-based
T5 construct: Eurofins Cerep (France) and Eurofins Discovery (St. Charles, MO)
Description: as §1

H1(h) = target: T6, H1(h) (Homo sapiens, UniProt P35367); assay: as above; format: cell-based
T6 construct: Eurofins Cerep (France) and Eurofins Discovery (St. Charles, MO)
Description: as §1

[2] = Metabolic stability in liver microsomes; details: human, pH 7.4
24 receptor targets = assay: Cellular and nuclear receptor functional assays, agonist and antagonist effect (panel); format: cell-based; details: 10 μM
Description: as §1

CYP1A2 = assay: CYP induction, in situ catalytic activity, human hepatocytes; format: in vitro ADME
Description: Rifampicin as a positive control and solvent (0.1% DMSO) vehicle control were also included. The acceptance criteria for CYP induction was ≥ 2-fold induction for significant CYP activity, while the acceptance criteria for CYP mRNA was ≥ 4-fold for significant CYP induction.

[3] = heat-inactivated liver microsomes

T2 sequence (O96017 whole entry): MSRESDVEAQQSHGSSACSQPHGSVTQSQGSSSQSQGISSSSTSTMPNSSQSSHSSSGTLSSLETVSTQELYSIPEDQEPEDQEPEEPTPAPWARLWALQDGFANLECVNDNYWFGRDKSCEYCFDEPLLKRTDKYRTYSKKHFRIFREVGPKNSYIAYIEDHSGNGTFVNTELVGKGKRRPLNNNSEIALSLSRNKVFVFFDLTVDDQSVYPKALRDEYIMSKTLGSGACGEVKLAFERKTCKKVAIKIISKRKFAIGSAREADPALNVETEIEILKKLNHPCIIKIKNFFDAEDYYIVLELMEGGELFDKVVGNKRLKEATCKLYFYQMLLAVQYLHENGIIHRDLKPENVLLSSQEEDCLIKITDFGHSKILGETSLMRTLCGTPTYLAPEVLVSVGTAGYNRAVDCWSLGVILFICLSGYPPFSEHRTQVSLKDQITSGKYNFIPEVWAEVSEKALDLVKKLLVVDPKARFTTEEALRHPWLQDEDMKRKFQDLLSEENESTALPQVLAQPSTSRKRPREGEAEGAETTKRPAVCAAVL
Sequence of CYP2D6 (P10635 whole entry): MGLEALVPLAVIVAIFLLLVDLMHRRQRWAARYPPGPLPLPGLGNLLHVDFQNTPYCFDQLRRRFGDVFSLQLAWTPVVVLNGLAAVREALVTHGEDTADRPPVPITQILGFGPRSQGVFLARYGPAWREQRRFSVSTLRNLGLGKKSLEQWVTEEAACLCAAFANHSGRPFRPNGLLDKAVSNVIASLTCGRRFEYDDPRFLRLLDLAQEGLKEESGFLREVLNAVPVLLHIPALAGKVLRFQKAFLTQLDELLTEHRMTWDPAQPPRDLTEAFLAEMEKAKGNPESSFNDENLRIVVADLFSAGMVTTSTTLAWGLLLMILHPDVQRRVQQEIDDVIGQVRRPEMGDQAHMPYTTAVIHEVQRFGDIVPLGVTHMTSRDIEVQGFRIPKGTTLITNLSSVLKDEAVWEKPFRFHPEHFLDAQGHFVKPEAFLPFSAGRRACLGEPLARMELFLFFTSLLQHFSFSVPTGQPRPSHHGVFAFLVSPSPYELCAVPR
T3 sequence (P37288 whole entry): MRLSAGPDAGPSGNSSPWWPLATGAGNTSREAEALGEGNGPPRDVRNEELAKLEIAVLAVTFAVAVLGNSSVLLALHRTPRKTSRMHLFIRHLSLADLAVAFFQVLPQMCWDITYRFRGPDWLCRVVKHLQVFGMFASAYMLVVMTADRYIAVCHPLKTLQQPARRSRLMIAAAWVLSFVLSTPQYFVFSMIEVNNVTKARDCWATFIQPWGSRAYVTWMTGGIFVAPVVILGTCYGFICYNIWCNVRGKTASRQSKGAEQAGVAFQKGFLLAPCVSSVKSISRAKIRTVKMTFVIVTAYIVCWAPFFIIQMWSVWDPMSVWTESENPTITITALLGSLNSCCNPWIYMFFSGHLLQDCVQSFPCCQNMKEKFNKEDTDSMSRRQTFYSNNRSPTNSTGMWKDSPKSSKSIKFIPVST
T6 sequence (P35367 whole entry): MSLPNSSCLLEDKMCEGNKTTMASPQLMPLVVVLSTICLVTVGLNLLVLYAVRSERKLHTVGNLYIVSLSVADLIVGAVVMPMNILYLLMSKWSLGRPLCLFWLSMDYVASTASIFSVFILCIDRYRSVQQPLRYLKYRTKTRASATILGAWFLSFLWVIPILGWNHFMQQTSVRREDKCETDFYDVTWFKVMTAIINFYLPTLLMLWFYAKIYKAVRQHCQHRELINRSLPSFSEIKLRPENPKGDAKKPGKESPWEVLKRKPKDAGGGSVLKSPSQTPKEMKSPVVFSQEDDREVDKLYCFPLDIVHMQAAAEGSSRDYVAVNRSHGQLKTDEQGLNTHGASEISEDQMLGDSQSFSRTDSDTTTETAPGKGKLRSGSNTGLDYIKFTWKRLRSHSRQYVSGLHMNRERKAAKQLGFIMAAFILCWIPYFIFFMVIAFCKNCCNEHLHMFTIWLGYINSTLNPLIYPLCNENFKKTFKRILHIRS
T4 sequence (P41595 whole entry): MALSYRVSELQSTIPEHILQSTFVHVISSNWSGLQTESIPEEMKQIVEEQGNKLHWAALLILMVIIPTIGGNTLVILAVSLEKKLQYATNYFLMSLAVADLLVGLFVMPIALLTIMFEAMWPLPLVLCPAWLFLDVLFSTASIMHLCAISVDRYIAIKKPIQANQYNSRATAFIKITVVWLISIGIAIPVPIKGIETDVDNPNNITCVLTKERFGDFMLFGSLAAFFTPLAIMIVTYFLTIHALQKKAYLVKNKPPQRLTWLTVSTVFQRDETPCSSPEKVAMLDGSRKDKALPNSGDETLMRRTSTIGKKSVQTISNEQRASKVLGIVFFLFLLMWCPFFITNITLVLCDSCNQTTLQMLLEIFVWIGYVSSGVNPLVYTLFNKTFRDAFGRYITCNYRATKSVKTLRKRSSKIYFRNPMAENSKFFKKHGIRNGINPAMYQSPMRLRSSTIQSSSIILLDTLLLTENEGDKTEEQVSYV
T5 sequence (P35348 whole entry): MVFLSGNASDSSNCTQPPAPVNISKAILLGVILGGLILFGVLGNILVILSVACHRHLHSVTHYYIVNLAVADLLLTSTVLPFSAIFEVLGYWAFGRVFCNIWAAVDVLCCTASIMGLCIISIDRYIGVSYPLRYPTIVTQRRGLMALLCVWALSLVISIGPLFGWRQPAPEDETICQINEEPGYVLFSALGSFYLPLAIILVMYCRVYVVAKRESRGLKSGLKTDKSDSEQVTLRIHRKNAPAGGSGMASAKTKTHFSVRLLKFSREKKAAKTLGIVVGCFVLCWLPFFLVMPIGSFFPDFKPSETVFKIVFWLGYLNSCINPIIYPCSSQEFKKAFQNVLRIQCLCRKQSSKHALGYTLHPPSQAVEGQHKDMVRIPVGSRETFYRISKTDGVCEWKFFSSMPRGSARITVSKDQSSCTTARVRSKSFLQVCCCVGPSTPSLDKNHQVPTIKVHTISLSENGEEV

SMILES: CCc1cc(Cl)c(OC)c(N2CCN(CC(O)CCNC(=O)c3cc4ccccc4[nH]3)CC2)c1 (stereo not shown) [R-VK4-116, N-(4-(4-(3-chloro-5-ethyl-2-methoxyphenyl)piperazin-1-yl)-3-hydroxybutyl)-1H-indole-2-carboxamide]
- inhibition at 100 µM (Kir2.1; read-out: inhibition, End): 97.2%
- inhibition at 100 µM (Kir2.1; read-out: inhibition, Peak): 52.6%
- CYP2D6 inhibition (CYP2D6; up to 100 μM): did not inhibit CYP significantly
- activity at 20 min, 0.1 µM (CYP2D6; human, probe bufuralol): 92.6 ± 9%
- activity at 20 min, 0.3 µM (CYP2D6; human, probe bufuralol): 86.1 ± 4%
- activity at 20 min, 1 µM (CYP2D6; human, probe bufuralol): 84.3 ± 3.7%
- activity at 20 min, 3 µM (CYP2D6; human, probe bufuralol): 92.1 ± 6.8%
- activity at 20 min, 10 µM (CYP2D6; human, probe bufuralol): 94.7 ± 6.5%
- activity at 20 min, 30 µM (CYP2D6; human, probe bufuralol): 83.1 ± 1.6%
- activity at 20 min, 60 µM (CYP2D6; human, probe bufuralol): 84.5 ± 1.8%
- activity at 20 min, 100 µM (CYP2D6; human, probe bufuralol): 95 ± 7.5%
- half-life at 0.5 μM [1]: 1.52 h
- half-life at 10 μM [1]: 5.78 h
- hepatocyte CLint at 0.5 μM [1]: 15.2 µL/min/1e6 cells
- hepatocyte CLint at 10 μM [1]: 4 µL/min/1e6 cells
- % remaining Vs T = 0 min (dog hepatocytes; 0.5 μM, 0 min): 100.0%
- % remaining Vs T = 0 min (dog hepatocytes; 0.5 μM, 30 min): 71.2%
- % remaining Vs T = 0 min (dog hepatocytes; 0.5 μM, 60 min): 61.2%
- % remaining Vs T = 0 min (dog hepatocytes; 0.5 μM, 90 min): 45.4%
- % remaining Vs T = 0 min (dog hepatocytes; 0.5 μM, 120 min): 40.1%
- % remaining Vs T = 0 min (dog hepatocytes; 10 μM, 0 min): 100.0%
- % remaining Vs T = 0 min (dog hepatocytes; 10 μM, 30 min): 85.3%
- % remaining Vs T = 0 min (dog hepatocytes; 10 μM, 60 min): 85.5%
- % remaining Vs T = 0 min (dog hepatocytes; 10 μM, 90 min): 80.3%
- % remaining Vs T = 0 min (dog hepatocytes; 10 μM, 120 min): 76.4%
- Kd (CHEK2; 11-point curve 0.001 to 10 μM, read-out: binding constant (Kd)): > 10 µM
- remaining binding at 1 µM (CHEK2; read-out: %Control): < 35%
- remaining binding at 1 µM (CHEK2; read-out: Gene (S-score with % control): CHEK2): 19%
- antagonist effect (V1a(h)): 27.8%
- antagonist effect (5-HT2B(h)): 44.6%
- inhibition at 10 µM (α1A(h)): 82.9%
- inhibition at 10 µM (H1(h)): 86.1%
- remaining at 0 h, 1 μM [2, 3]: 100%
- remaining at 0 h, 10 μM [2, 3]: 100%
- remaining at 2 h, 1 μM [2, 3]: 96.7%
- remaining at 2 h, 10 μM [2, 3]: 95.1%
- remaining at 0 h, 1 μM ([2]; liver microsomes): 100%
- remaining at 0 h, 10 μM ([2]; liver microsomes): 100%
- remaining at 0.5 h, 1 μM ([2]; liver microsomes): 41.1%
- remaining at 0.5 h, 10 μM ([2]; liver microsomes): 69.7%
- remaining at 1 h, 1 μM ([2]; liver microsomes): 25.9%
- remaining at 1 h, 10 μM ([2]; liver microsomes): 60.1%
- remaining at 1.5 h, 1 μM ([2]; liver microsomes): 22.3%
- remaining at 1.5 h, 10 μM ([2]; liver microsomes): 55.5%
- remaining at 2 h, 1 μM ([2]; liver microsomes): 16.4%
- remaining at 2 h, 10 μM ([2]; liver microsomes): 48.9%
- agonist and antagonist effects for most of the targets (24 receptor targets): did not exhibit agonist and antagonist effects
- CYP1A2 activity, Fold of Vehicle Control (CYP1A2; Lot 336, 0.01 µM): 0.96 fold
- Phenacetin-O- deethylation (CYP1A2; Lot 336, 0.01 µM): 1.1 pmol/min/106 cells
- CYP1A2 activity, Fold of Vehicle Control (CYP1A2; Lot 336, 0.1 µM): 0.96 fold
- Phenacetin-O- deethylation (CYP1A2; Lot 336, 0.1 µM): 1.1 pmol/min/106 cells
- CYP1A2 activity, Fold of Vehicle Control (CYP1A2; Lot 336, 1 µM): 1.2 fold
- Phenacetin-O- deethylation (CYP1A2; Lot 336, 1 µM): 1.4 pmol/min/106 cells
- CYP1A2 activity, Fold of Vehicle Control (CYP1A2; Lot 336, 3 µM): 1.5 fold
- Phenacetin-O- deethylation (CYP1A2; Lot 336, 3 µM): 1.8 pmol/min/106 cells
- CYP1A2 activity, Fold of Vehicle Control (CYP1A2; Lot 336, 5 µM): 1.6 fold
- Phenacetin-O- deethylation (CYP1A2; Lot 336, 5 µM): 1.8 pmol/min/106 cells
- CYP1A2 activity, Fold of Vehicle Control (CYP1A2; Lot 336, 10 µM): 1.5 fold
- CYP1A2 activity, Fold of Vehicle Control (CYP1A2; Lot 348B, 0.01 µM): 0.92 fold
- CYP1A2 activity, Fold of Vehicle Control (CYP1A2; Lot 348B, 0.1 µM): 0.91 fold
- CYP1A2 activity, Fold of Vehicle Control (CYP1A2; Lot 348B, 1 µM): 0.99 fold
- CYP1A2 activity, Fold of Vehicle Control (CYP1A2; Lot 348B, 3 µM): 1.1 fold
- CYP1A2 activity, Fold of Vehicle Control (CYP1A2; Lot 348B, 5 µM): 1.1 fold
- CYP1A2 activity, Fold of Vehicle Control (CYP1A2; Lot 348B, 10 µM): 1.1 fold
- CYP1A2 activity, Fold of Vehicle Control (CYP1A2; Lot 399, 0.01 µM): 1.1 fold
- Phenacetin-O- deethylation (CYP1A2; Lot 399, 0.01 µM): 8.8 pmol/min/106 cells
- CYP1A2 activity, Fold of Vehicle Control (CYP1A2; Lot 399, 0.1 µM): 1.1 fold
- Phenacetin-O- deethylation (CYP1A2; Lot 399, 0.1 µM): 9.4 pmol/min/106 cells
- CYP1A2 activity, Fold of Vehicle Control (CYP1A2; Lot 399, 1 µM): 1.1 fold
- Phenacetin-O- deethylation (CYP1A2; Lot 399, 1 µM): 9.3 pmol/min/106 cells
- CYP1A2 activity, Fold of Vehicle Control (CYP1A2; Lot 399, 3 µM): 1.2 fold
- Phenacetin-O- deethylation (CYP1A2; Lot 399, 3 µM): 9.8 pmol/min/106 cells
- CYP1A2 activity, Fold of Vehicle Control (CYP1A2; Lot 399, 5 µM): 1.2 fold
- Phenacetin-O- deethylation (CYP1A2; Lot 399, 5 µM): 10 pmol/min/106 cells
- CYP1A2 activity, Fold of Vehicle Control (CYP1A2; Lot 399, 10 µM): 1.1 fold
- Phenacetin-O- deethylation (CYP1A2; Lot 399, 10 µM): 9.0 pmol/min/106 cells
